Laboratory results as given in patent EP2627439B1, “METHOD FOR SOLUBILIZING CARBOXYLIC ACID-CONTAINING COMPOUND IN HYDROCARBON SOLVENT” (Dow Global Technologies LLC, priority 2011, dated 2013).

Test: Solubility measurement of acid chlorides containing one carboxylic acid moiety in hydrocarbon solvents (saturated solutions, proton NMR)
Type: physicochemical
Conditions: saturated solution, 20°C and 101 kPa
Description: Solubility measurement of acid chlorides containing one carboxylic acid moiety in hydrocarbon solvents with and without solubility enhancing additives: • Saturated solutions of sample acid chlorides containing carboxylic acid moieties were prepared in hydrocarbon solvents with and without the presence of trialkylphosphate additives by adding more sample than will dissolve in the solvent and decanting the saturated solvent from the undissolved precipitate. The saturated solutions were evaluated by proton NMR. Deuterated Isopar L is not commercially available, thus all spectra were acquired in the unlocked condition using regular Isopar L. Because of the very high proton concentration in running a non-deuterated solvent, 60° pulse and minimum receiver gain were used to avoid receiver overflow. A relaxation delay of 8 seconds was used for complete signal recovery between scans. The spectral width was set to 20 ppm and the center of the spectrum was set to 5 ppm. Depending on the concentrations of the species of interest, 64-256 scans were used for signal averaging.
The area of the Isopar L peaks between 0.75 and 2.0 ppm were measure and divided by 26 (which represents the average H's present in Isopar L, assuming a molecular formula of C12H26) and multiplied by 170.33, the formula weight of C12H26. The peak area of the aromatic acid chlorides containing carboxylates are between 8.9 - 9.2 ppm and are well resolved from the Isopar solvent. The integration of one of the assigned peaks (for example, the triplet of mono-hydrolyzed TMC at 9.0 ppm represents a single proton) was used to determine the relative weight of the sample in the Isopar L solvent. The integration is divided by the number of protons it represents and multiplied by the formula weight of the compound it represents (for example, the triplet of mono-hydrolyzed TMC at 9.0 ppm would be divided by 1 and multiplied by 247.03 g/mol). The wt% of mono-hydrolyzed TMC in the saturated solution is determined by dividing the value obtained for mono-hydrolyzed TMC by the value obtained for Isopar L.
In the presence of tributylphosphate (TBP), the Isopar L value must be corrected since a few protons of TBP cannot be resolved from the Isopar L peaks. This is done by integrating the -OCH2-protons of TBP which are well resolved at ∼4.05 ppm, dividing this value by 6 (for 6 protons). This area value is then multiplied by 21 (represents the three -CH2CH2CH3 that are unresolved from the Isopar L peak) and subtracted from the peak area of Isopar L. Table 2: […]

| Solubility (wt%) (Solvent: 80/20 Isopar L / Toluene, no additive) | Solubility (wt%) (Solvent: 80/20 Isopar L/Toluene + 0.25 wt% TBP) | Solubility (wt%) (Solvent: Isopar L + 1 wt% TEHP) | Solubility (wt%) (Solvent: Isopar L + 1 wt% TEP) | Solubility (wt%) (Solvent: Isopar L, no additive) | Solubility (wt%) (Solvent: Isopar L + 0.47 wt% TBP) | Structure (SMILES) |
| --- | --- | --- | --- | --- | --- | --- |
| 0.05 | 0.29 | 0.11 | 0.2 | 0.02 |  | O=C(O)c1cc(C(=O)Cl)cc(C(=O)Cl)c1 [mhTMC, mono-hydrolyzed trimesoyl chloride] |
|  |  |  |  | <0.02 | 0.29 | O=C(O)c1cccc(C(=O)Cl)c1 [mhIPC] |
